Binding and KD data for 3 molecules are collected here from publication PMC9904497 (2023).

Experiment [1] has as its system PQS-1234-WT (RNA, G4) GGGUUAGCCAGGGCCGAGGGGGGCUGGG
The experiment in a line: fluorescence enhancement. The following applies: 150 mM KCl; 10 mM Tris-HCl pH 7.5; 2 µM RNA, 2 µM dye; higher than in LiCl.

Experiment [2] has as its system PQS-1682-WT (RNA, G4) GGAGGUGGAUGG
The experiment in a line: fluorescence enhancement. The following applies: 150 mM KCl; 10 mM Tris-HCl pH 7.5; 2 µM RNA, 2 µM dye.

Experiment [3] deals with PQS-2302-WT (RNA, G4) GGGGAGGAGG
The experiment in a line: fluorescence enhancement. To be noted: 150 mM KCl; 10 mM Tris-HCl pH 7.5; 2 µM RNA, 2 µM dye; higher than in LiCl.

Experiment [4] relates to PQS-1276-WT (RNA, G4) GGGCCUCGGGGAACGGGGGCCGGG
The experiment in a line: fluorescence enhancement. The following applies: 150 mM KCl; 10 mM Tris-HCl pH 7.5; 2 µM RNA, 2 µM dye; higher than in LiCl.

The test system of experiment [5] is PQS-91-WT (RNA, G4) GGGGGGAGGGCCGGG
The experiment in a line: fluorescence enhancement. The following applies: 150 mM KCl, 10 mM Tris-HCl pH 7.5, 2 µM RNA, 2 µM dye.

For experiment [6], the system named is PQS-2302-WT-CY5 (RNA, G4) GGGGAGGAGG
The experiment in a line: microscale thermophoresis (MST). To be noted: 150 mM KCl; 10 mM Tris-HCl pH 7.5 folding buffer; BBM stock 80 µM mixed 1:1. A general note: In MST a laser heats a spot of the sample, and binding alters the fluorescence response.

For experiment [7], the system named is PQS-675-WT-CY5 (RNA, G4) GGGCGGGCGGCCUGCAGGGACAUGGG
The experiment in a line: microscale thermophoresis (MST). To be noted: 150 mM KCl; 10 mM Tris-HCl pH 7.5 folding buffer; BBM stock 80 µM mixed 1:1.

The test system of experiment [8] is TERRA-WT-CY5 (RNA, G4) UUAGGGUUAGGGUUAGGGUUAGGG
The experiment in a line: microscale thermophoresis (MST). The following applies: 150 mM KCl; 10 mM Tris-HCl pH 7.5 folding buffer; BBM stock 80 µM mixed 1:1.

As for `CCc1c(C)c2cc3nc(cc4nc(cc5c(CC)c(C)c(cc1[nH]2)n5C)C(C)=C4CCC(=O)O)C(CCC(=O)O)=C3C`, the binding entry is listed as “yes” in experiment [1]; “weak” in experiment [2]; “yes” in experiment [3]; “yes” in experiment [4]; “weak” in experiment [5] (only slightly higher than in LiCl).
For orientation: KD means the constant that tells how readily two partners part at equilibrium. A high value points to weaker binding. `COc1cc2c3cc1Oc1c(OC)c(OC)cc4c1[C@@H](Cc1ccc(O)c(c1)Oc1ccc(cc1)C[C@@H]3N(C)CC2)N(C)CC4`: the equilibrium dissociation constant (KD) in experiment [6] is 264.76 nM; in experiment [7] it was 10.78 nM; in experiment [8], 11550 nM.
As for `Cc1ccc2c(c1)sc(-c1ccc(N(C)C)cc1)[n+]2C`, the binding result is on record as “yes” in experiment [1]; “weak” in experiment [2]; “yes” in experiment [3]; “yes” in experiment [4]; “yes” in experiment [5] (higher than in LiCl).
